Measured values as given in publication PMC12543186, “Discovery of C-12 dithiocarbamate andrographolide analogue as a novel antioxidant and α-glucosidase inhibitors: In vitro and in silico studies” (PLOS One, 2025).
pIC50, pKd: −log10 of the molar value. “And” between values parts separate entries of the source, which are not always exact repeats. Identical values can stand only once. Like-named read-outs stand apart in the source and are kept apart here.

Assays:
[1] = Ferric reducing antioxidant power (FRAP) activity
Experimental: The FRAP activity assay was performed to assess the reducing power ability to reduce ferric ions (Fe^3+) to ferrous ions (Fe^2+), following the established method described by Sekhon-Loodu and Rupasinghe. The FRAP reagent was freshly prepared by combining 300 mM acetate buffer pH 3.6, 10 mM 2,4,6- Tri(2-pyridyl)-s-triazine (TPTZ) dissolved in 40 mM HCl, and 20 mM FeCl3 in a ratio of 10:1:1. Ferrous sulfate (FeSO4) was used as a standard, with ascorbic acid serving as a control. The assay was conducted in a 96-well plate by mixing 20 μL of the sample, standard, or positive control with 80 μL of the FRAP solution. The mixture was then incubated for 20 minutes at room temperature, after which we measured absorbance at 595 nm using a microplate reader. The results were expressed as FRAP value, reported as ascorbic acid equivalent in μM (AAE, μM), providing a definitive measure of reducing power.

[2] = biological target: T1, α-glucosidase from Saccharomyces cerevisiae (Saccharomyces cerevisiae, UniProt P38158); experiment: Surface plasmon resonance, steady-state affinity; type: binding
T1 sequence (P38158 whole entry): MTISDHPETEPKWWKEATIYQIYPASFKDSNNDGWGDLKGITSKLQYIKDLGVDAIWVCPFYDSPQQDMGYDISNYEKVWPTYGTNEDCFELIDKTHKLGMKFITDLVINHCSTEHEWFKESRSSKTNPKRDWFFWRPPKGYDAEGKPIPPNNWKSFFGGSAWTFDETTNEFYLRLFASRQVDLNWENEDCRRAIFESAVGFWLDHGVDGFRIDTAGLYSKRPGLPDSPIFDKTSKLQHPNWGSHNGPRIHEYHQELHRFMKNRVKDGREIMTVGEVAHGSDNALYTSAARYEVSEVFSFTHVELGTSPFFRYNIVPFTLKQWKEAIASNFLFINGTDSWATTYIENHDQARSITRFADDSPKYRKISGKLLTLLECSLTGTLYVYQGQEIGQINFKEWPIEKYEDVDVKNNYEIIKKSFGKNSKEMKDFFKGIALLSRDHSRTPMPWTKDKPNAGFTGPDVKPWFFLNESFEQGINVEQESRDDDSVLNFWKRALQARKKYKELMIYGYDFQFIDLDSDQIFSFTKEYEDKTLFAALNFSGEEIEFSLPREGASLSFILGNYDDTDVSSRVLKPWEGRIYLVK
Experimental: All experiments were conducted using a Biacore X100 instrument at 25 °C with a running buffer of 1X PBS-P+ (10 mM phosphate buffer pH 7.4, 2.7 mM KCl, 137 mM NaCl, 0.05% Tween 20) supplemented with 5% DMSO. Compounds were initially dissolved in DMSO to a final concentration of 14 mM. The stock solution was then diluted to 700 μM in 1.05X PBS-P+ to prepare a compound solution containing 1X PBS-P+ with 5% DMSO. This compound solution was utilized to prepare the required concentrations for injections into the Biacore system. α-glucosidase from Saccharomyces cerevisiae was immobilized onto a CM5 chip following standard amine coupling procedures: the CM5 chip, containing channel 1 and 2, was activated with an injection of NHS/EDC mixture with a contact time of 540 s at a flow rate of 10 µL/min. This was followed by multiple injections of α-glucosidase dissolved in 10 mM sodium acetate pH 4.0 (50 µg/mL) onto channel 2, also with a contact time of 540 s at a flow rate of 10 µL/min. Both channels were inactivated by an injection of 1M ethanolamine at a flow rate of 10 µL/min for 540 s. An immobilization level of 3300 RU of α-glucosidase was achieved.
Multi-cycle affinity studies were conducted with a 100 s association phase and a 60 s dissociation phase, using a flow rate of 30 µL/min. Compounds were injected onto the chip at increasing concentrations of 7, 21, 70, 210, and 490 μM. Binding measurements were taken after reference subtraction of channel 1 (no immobilized α-glucosidase) and after subtracting the results from a blank injection with zero analyte concentration. All data evaluation was performed with Biacore X100 evaluation software (version 2.0).

[3] = DPPH radical scavenging activity
Experimental: The DPPH radical scavenging activity was conducted to thoroughly evaluate the antioxidant potential of andrographolide and its analogues. We modified the assay employing the Sekhon-Loodu and Rupasinghe methods. A DPPH solution was prepared in absolute ethanol, with a concentration of 200 μM. Next, 100 μL of DPPH solution was mixed with 100 μL of the sample in a 96-well plate. The mixture was then incubated for 30 minutes at room temperature. Following incubation, we measured the absorbance at 517 nm using a microplate reader. We tested the antioxidant properties of the compounds at a concentration of 500 μM to detect the weak-to-moderate antioxidants while addressing solubility limitations and minimizing assay artefacts, consistent with previous research. The DPPH radical scavenging activity was precisely expressed as a percentage of DPPH inhibition (% DPPH Inhibition). We selected candidates based on their higher inhibitory activity and prepared various concentrations of these candidates for testing. α-tocopherol, also known as vitamin E, was employed as a positive control. The % DPPH Inhibition was calculated as follows:
%DPPH Inhibition=(1–{A/B})×100
Where A was the absorbance of the DPPH with sample, and B was the absorbance of the DPPH with vehicle (blank).

[4] = biological target: T1, α-glucosidase from Saccharomyces cerevisiae; experiment: α-glucosidase inhibition activity (p-NPG substrate); type: biochemical
Experimental: An in vitro α-glucosidase inhibitory assay is commonly used to evaluate the inhibitory effects of various compounds on the enzyme α-glucosidase, which is involved in carbohydrate digestion. Inhibiting this enzyme results in slower glucose absorption, which can be beneficial for managing postprandial blood sugar levels in diabetic conditions. This assay was modified from the methods described by Yusuf et al.. The procedure involved mixing 25 μL of the sample, 150 μL of phosphate buffer saline (PBS) pH 7.4, and 75 μL of 10 mM p-NPG. The mixture was incubated at 37 °C for 10 min. Next, 50 μL of α-glucosidase enzyme from Saccharomyces cerevisiae at a concentration of 0.1 U/mL was added, then incubated at 37 °C for 10 min. To terminate the reaction, […] of 0.1 M sodium carbonate (Na2CO3) was added to the mixture. The absorbance was measured using a microplate reader. The percentage of α-glucosidase inhibition was calculated as follows:
α−glucosidase inhibition(%)=(1–{A−B/C−D})×100
Where A was the absorbance of the sample with α-glucosidase enzyme, B was the absorbance of the sample, C was the absorbance of vehicle with α-glucosidase enzyme, and D was the absorbance of the vehicle (blank).

[5] = 500 μM, second replicate column

C=C1CCC2C(C)(COC(C)=O)C(OC(C)=O)CCC2(C)C1CC(SC(=S)N1CCN(c2ccc(O)cc2)CC1)C1=CCOC1=O (stereo not shown) [compound 3f]
FRAP, Ascorbic acid equivalent, replicate 1 ([1]; 500 μM, first replicate column): 109.9203 AAE, μM | FRAP, Ascorbic acid equivalent, replicate 2 [1, 5]: 87.9587 AAE, μM | FRAP, Ascorbic acid equivalent, replicate 3 ([1]; 500 μM, third replicate column): 67.0175 AAE, μM | FRAP activity ([1]; 600 μM): 253.90 ± 47.40 AAE | pKd [2]: 4.89 | fold stronger affinity than andrographolide ([2]; from SPR KD values): approximately 10 fold | pIC50 ([3]; 200 μM DPPH solution): ~4.60 | % Inhibition (DPPH), replicate 1 ([3]; 500 μM, first replicate column): 85.7465% | % DPPH Inhibition, Mean ([3]; 500 μM, mean of n = 3): 84% and 84.47 ± 1.14% and 84.4719% | % Inhibition (DPPH), replicate 2 [3, 5]: 83.5328% | % Inhibition (DPPH), replicate 3 ([3]; 500 μM, third replicate column): 84.1364% | pIC50 ([4]; IC50 (α-glucosidase inhibitory activity), concentration range up to 2000 μM): 3.39 and ~3.39 | inhibition at 31.2 µM ([4]; read-out: α-glucosidase inhibition (%), Mean, 31.2 μM): -0.49% | inhibition at 62.5 µM ([4]; read-out: α-glucosidase inhibition (%), Mean, 62.5 μM): 5.53% | inhibition at 125 µM ([4]; read-out: α-glucosidase inhibition (%), Mean, 125 μM): 15.2% | inhibition at 250 µM ([4]; read-out: α-glucosidase inhibition (%), Mean, 250 μM): 26.6% | inhibition at 500 µM ([4]; read-out: α-glucosidase inhibition (%), Mean, 500 μM): 56.3% | inhibition at 1000 µM ([4]; read-out: α-glucosidase inhibition (%), Mean, 1000 μM): 78% | inhibition at 2000 µM ([4]; read-out: α-glucosidase inhibition (%), Mean, 2000 μM): 81.9% | inhibition at 31.2 µM ([4]; read-out: α-glucosidase inhibition (%), replicate 1, 31.2 μM, first replicate column): 3.15% | inhibition at 62.5 µM ([4]; read-out: α-glucosidase inhibition (%), replicate 1, 62.5 μM, first replicate column): 5.24% | inhibition at 125 µM ([4]; read-out: α-glucosidase inhibition (%), replicate 1, 125 μM, first replicate column): 19.1% | inhibition at 250 µM ([4]; read-out: α-glucosidase inhibition (%), replicate 1, 250 μM, first replicate column): 28.2% | inhibition at 500 µM ([4]; read-out: α-glucosidase inhibition (%), replicate 1, 500 μM, first replicate column): 59.3% | inhibition at 1000 µM ([4]; read-out: α-glucosidase inhibition (%), replicate 1, 1000 μM, first replicate column): 78.6% | inhibition at 2000 µM ([4]; read-out: α-glucosidase inhibition (%), replicate 1, 2000 μM, first replicate column): 81.9% | inhibition at 31.2 µM ([4]; read-out: α-glucosidase inhibition (%), replicate 2, 31.2 μM, second replicate column): -1.2% | inhibition at 62.5 µM ([4]; read-out: α-glucosidase inhibition (%), replicate 2, 62.5 μM, second replicate column): 7.4% | inhibition at 125 µM ([4]; read-out: α-glucosidase inhibition (%), replicate 2, 125 μM, second replicate column): 17.6% | inhibition at 250 µM ([4]; read-out: α-glucosidase inhibition (%), replicate 2, 250 μM, second replicate column): 28.1% | inhibition at 500 µM ([4]; read-out: α-glucosidase inhibition (%), replicate 2, 500 μM, second replicate column): 57.1% | inhibition at 1000 µM ([4]; read-out: α-glucosidase inhibition (%), replicate 2, 1000 μM, second replicate column): 78% | inhibition at 2000 µM ([4]; read-out: α-glucosidase inhibition (%), replicate 2, 2000 μM, second replicate column): 81.9% | inhibition at 31.2 µM ([4]; read-out: α-glucosidase inhibition (%), replicate 3, 31.2 μM, third replicate column): -3.42% | inhibition at 62.5 µM ([4]; read-out: α-glucosidase inhibition (%), replicate 3, 62.5 μM, third replicate column): 3.94% | inhibition at 125 µM ([4]; read-out: α-glucosidase inhibition (%), replicate 3, 125 μM, third replicate column): 8.93% | inhibition at 250 µM ([4]; read-out: α-glucosidase inhibition (%), replicate 3, 250 μM, third replicate column): 23.5% | inhibition at 500 µM ([4]; read-out: α-glucosidase inhibition (%), replicate 3, 500 μM, third replicate column): 52.6% | inhibition at 1000 µM ([4]; read-out: α-glucosidase inhibition (%), replicate 3, 1000 μM, third replicate column): 77.3% | inhibition at 2000 µM ([4]; read-out: α-glucosidase inhibition (%), replicate 3, 2000 μM, third replicate column): 82%
